Results from patent publication US8158608B2, “Bioactive fraction from Zingier officinale and a process for the preparation thereof” (Council of Scientific and Industrial Research, priority 2006, dated 2012).

What was measured:
[1] = biological target: Proton Potassium ATPase (H+ K+ ATPase) (Ovis aries, UniProt A0ACI6QGK8); test: Proton potassium ATPase inhibition (PPI), inorganic phosphate release; type: biochemical, sheep; details: calculated contribution of GRAOX components
Protocol: Fresh sheep stomach was obtained from local slaughterhouse at Mysore. The mucosa of gastric fundus was cut off and the inner layer were scraped for parietal cells and homogenized in 16 mM Tris buffer (pH 7.4) containing 10% triton-x100 and centrifuged at 6000 rpm for 10 min. The supernatant (enzyme extract) was used for the assay. Protein content was determined according to Brad ford's method using BSA as standard.
Inorganic phosphate formed was measured spectrophotometrically at 400 nm. Enzyme activity was calculated as μ moles of Pi released/hr at various doses of GRAOX and GRPP. […] (FIG. 1, Table. 1)

[2] = Antioxidant (Aox) potency of identified phenolic acids; details: for Contribution towards AOX potency of GRAOX: calculated contribution of GRAOX components
Protocol: The identified phenolic acids were examined for their ability to inhibit proton potassium ATPase activity and their antioxidant potency was also determined.

Sequence of Proton Potassium ATPase (H+ K+ ATPase) (A0ACI6QGK8 entry or part of it): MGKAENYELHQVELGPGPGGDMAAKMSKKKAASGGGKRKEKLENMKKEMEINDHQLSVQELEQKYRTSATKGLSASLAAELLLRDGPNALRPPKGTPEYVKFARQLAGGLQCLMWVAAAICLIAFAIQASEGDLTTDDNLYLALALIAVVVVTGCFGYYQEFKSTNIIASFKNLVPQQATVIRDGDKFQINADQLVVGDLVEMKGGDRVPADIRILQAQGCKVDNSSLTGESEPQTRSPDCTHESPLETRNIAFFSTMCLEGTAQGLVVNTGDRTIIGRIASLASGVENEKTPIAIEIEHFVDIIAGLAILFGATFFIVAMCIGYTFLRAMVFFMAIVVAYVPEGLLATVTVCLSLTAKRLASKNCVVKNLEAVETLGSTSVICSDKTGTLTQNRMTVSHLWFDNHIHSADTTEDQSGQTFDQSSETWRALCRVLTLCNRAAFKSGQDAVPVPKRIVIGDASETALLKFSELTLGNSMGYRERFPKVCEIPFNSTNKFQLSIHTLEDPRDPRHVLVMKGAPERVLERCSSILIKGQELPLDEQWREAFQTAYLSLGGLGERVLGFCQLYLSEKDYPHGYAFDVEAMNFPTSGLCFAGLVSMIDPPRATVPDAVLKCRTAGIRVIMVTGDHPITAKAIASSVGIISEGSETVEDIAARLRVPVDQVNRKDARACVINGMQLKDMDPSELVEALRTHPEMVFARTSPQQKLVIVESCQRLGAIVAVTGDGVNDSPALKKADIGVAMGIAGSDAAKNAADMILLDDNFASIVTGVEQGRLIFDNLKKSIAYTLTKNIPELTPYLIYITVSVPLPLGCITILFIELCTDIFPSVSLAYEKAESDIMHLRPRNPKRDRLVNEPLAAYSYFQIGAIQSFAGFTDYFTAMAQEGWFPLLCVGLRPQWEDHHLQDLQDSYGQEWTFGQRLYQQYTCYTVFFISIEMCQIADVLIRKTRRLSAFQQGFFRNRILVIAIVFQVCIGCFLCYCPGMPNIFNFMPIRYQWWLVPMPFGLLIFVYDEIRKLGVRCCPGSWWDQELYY
Sequence of Proton Potassium ATPase (H+ K+ ATPase) (A0ACI6PNA7 entry or part of it, further chain): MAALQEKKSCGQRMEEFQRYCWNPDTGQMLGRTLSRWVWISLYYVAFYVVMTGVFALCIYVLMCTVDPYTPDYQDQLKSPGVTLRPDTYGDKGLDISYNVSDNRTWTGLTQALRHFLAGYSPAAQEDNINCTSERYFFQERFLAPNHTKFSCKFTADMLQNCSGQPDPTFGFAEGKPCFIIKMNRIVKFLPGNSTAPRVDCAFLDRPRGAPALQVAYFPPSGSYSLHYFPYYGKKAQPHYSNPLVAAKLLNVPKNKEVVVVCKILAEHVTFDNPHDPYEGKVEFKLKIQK

Molecule	Contribution towards H+K+ ATPase activity of GRAOX [1]	Contribution towards AOX potency of GRAOX [2]	antioxidant potency fold higher than Cinnamic acid ([2]; ratio versus Cinnamic acid)
Gallic acid/Tannic acid	~6%	~92%	~20 fold
O=C(O)C=Cc1ccccc1 [Cinnamic acid]	~90%	~2%	–
